Data on 16 compounds can be found in article PMC7616174, “Development of Novel 4-Arylpyridin-2-one and 6-Arylpyrimidin-4-one Positive Allosteric Modulators of the M1 Muscarinic Acetylcholine Receptor” (ChemMedChem, 2020).

The assay addresses T1, hM1 mAChR (Homo sapiens, UniProt P11229).
T1 construct: expressed in transfected cells
T1 sequence (P11229 1-460): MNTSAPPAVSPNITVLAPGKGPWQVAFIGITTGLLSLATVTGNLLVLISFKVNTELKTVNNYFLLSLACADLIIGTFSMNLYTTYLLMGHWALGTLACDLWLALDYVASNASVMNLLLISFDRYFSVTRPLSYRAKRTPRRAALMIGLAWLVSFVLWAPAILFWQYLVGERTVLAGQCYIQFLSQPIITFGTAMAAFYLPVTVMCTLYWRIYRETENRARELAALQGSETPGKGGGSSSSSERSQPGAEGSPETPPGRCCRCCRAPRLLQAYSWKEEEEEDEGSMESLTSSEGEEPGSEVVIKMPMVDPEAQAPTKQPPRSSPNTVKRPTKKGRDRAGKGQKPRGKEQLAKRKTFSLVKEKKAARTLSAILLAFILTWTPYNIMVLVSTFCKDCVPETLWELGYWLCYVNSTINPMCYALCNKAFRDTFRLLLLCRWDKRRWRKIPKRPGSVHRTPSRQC
Briefly: IP1 accumulation assay (ACh concentration-response curves in absence or presence of modulator). In kind it is cell-based. The following applies: FlpIn CHO hM1 cells, mean ± SEM, 3 experiments; for ΔpEC50 [1 μM]: change in ACh pEC50 in presence of M1 PAM compared to control curve / activation at 1 µM: 1 μM modulator; for activation at 1 µM: read-out: Δbaseline [1 μM]: change in basal response in presence of M1 PAM compared to control curve; for activation at 10 µM: read-out: Δbaseline [10 μM]: change in basal response in presence of M1 PAM compared to control curve. The method, then: Functional activity of the synthesized analogues as racemic mixtures was investigated in IP1 accumulation assays at the M1 mAChR, as described previously.[13–14] ACh concentration-response curves were generated in the absence or presence of a 1 and 10 μM concentration of each modulator. The change in baseline activity (Δbaseline) is an approximate measure of direct allosteric agonism (τB), whereas the pEC50 shift (ΔpEC50) is an approximate measure of functional cooperativity (αβ) of each modulator with ACh in the investigated signalling pathway. We aimed to identify modulators with various degrees of allosteric agonism and modulatory effects on ACh response, as these could generate distinct in vivo outcomes for applications in different conditions in the CNS or gastrointestinal (GI) tract.[[10g,h,j]]
The compounds were then fully characterised in two functional assays (Figure 2C and D); the Gq-coupled IP1 accumulation assay (Figure S2), which was used for the initial screening of the compounds, and a β-arrestin 2 recruitment assay (Figure S3). The operational efficacy (τB) values for the modulators and their functional cooperativity estimates with ACh (logαβACh) at both signalling pathways were estimated by applying an operational model of allosterism and agonism to the data [Eq. (3)],[16] and are listed in Table 5.
FlpIn CHO cells stably expressing the hM1 mAChR were seeded at 25000 per well of 96-well transparent cell culture plates and grown overnight. […] Cells were then stimulated with increasing concentration of ACh in the absence or presence of increasing concentrations of each modulator for 1 h at 37°C. […] Seven μL of cell lysates were transferred into wells of 384-well Proxiplates (Perki-nElmer Life Sciences), and IP1 levels were measured using the IP-One assay kit (Cisbio, Codolet, France). […] The signal was expressed as the HTRF ratio, interpolated from the standard curve, and normalized to the maximum response to ACh.
Changes in both baseline and pEC50 were quantified by subtracting the estimates at each M1 PAM concentrations with the control values. Propagation of the error on baseline and potency values were determined as follows [Eq. (1)]: σΔ=σPAM2+σcont.2 where σΔ is the standard error of the mean (SEM) for the change in value, and σPAM and σcont. are the SEM from the three-parameter logistic equation analysis in presence or absence of M1 PAM, respectively.
Functional interaction studies between ACh and allosteric modulators in IP1 and β-arrestin 2 recruitment assays were analysed according to a three-parameter logistic equation or the following operational model of allosterism and agonism [Eq. (3)].[16] E=Basal+(Em−Basal)([A](KB+αβ[B])+τB[B]EC50)^n/EC50n(KB+[B])^n+([A](KB+αβ[B])+τB[B]EC50)^n where Em is the maximal possible system response, and Basal is the response in the absence of agonist. [A] and [B] are concentrations of orthosteric and allosteric ligands, respectively. KB is the equilibrium dissociation constant of allosteric ligand, and EC50 is the concentration of orthosteric agonist required to achieve half maximal response. α and β represent the magnitude of the allosteric effects on orthosteric ligand affinity and efficacy, respectively; τB is the efficacy of allosteric ligand, and n is the slope factor of the transducer function that links occupancy to response.

Consider `Cn1cc(-c2ccc(COc3cccc(O)c3-c3cc(=O)n(C4CCCCC4O)cn3)cc2)cn1` (centres unmarked) [Compound 26d, 6-(2-Hydroxy-6-((4-(1-methyl-1H-pyrazol-4-yl)benzyl)oxy)phenyl)-3-(2-hydroxycyclohexyl)pyrimidin-4(3H)-one], for which the “ΔpEC50 [1 μM]: change in ACh pEC50 in presence of M1 PAM compared to control curve” value (“ΔpEC50 [1 μM]: change in ACh pEC50” below) is listed as 1.49±0.42 and the activation at 1 µM worked out at 82.1 ± 3%. In addition, where the note is “10 μM modulator”, the activation at 10 µM was determined as 100%.
In the case of `Cn1cc(-c2ccc(COc3ccccc3-c3ccc(-c4ccccc4O)cc3)cc2)cn1` [Compound 19, 2“-((4-(1-Methyl-1H-pyrazol-4-yl)benzyl)oxy)-[1,1’:4’,1“-terphenyl]-2-ol], the “ΔpEC50 [10 μM]: change in ACh pEC50 in presence of M1 PAM compared to control curve” value (“ΔpEC50 [10 μM]: change in ACh pEC50” for short) (10 μM modulator) is listed as 0.27±0.06.
In the case of `Cn1cc(-c2ccc(Cn3cccc(-c4ccn(C5CCCCC5O)c(=O)c4)c3=O)cc2)cn1` (centres unmarked) [Compound 9, 1’-(2-Hydroxycyclohexyl)-1-(4-(1-methyl-1H-pyrazol-4-yl)benzyl)-[3,4’-bipyridine]-2,2’(1H,1’H)-dione], the “ΔpEC50 [1 μM]: change in ACh pEC50” value was 0.12±0.09 and the activation at 1 µM was 5 ± 2%. Under “10 μM modulator”, the “ΔpEC50 [10 μM]: change in ACh pEC50” value was 0.69±0.08 and the activation at 10 µM came to 5.6 ± 2%.
For `Cn1cc(-c2ccc(COc3ccncc3-c3ccn(C4CCCCC4O)c(=O)c3)cc2)cn1` (centres unmarked) [Compound 7d, 1’-(2-Hydroxycyclohexyl)-4-((4-(1-methyl-1H-pyrazol-4-yl)benzyl)oxy)-[3,4’-bipyridin]-2’(1’H)-one], in that order: 0.04±0.09, -1.09%, 0.21±0.10 and 1.24 ± 3%.
On to `O=c1cc(-c2ccccc2OCc2ccc(-n3cccn3)cc2)ncn1C1CCCCC1O` (centres unmarked) [Compound 27c, 6-(2-((4-(1H-Pyrazol-1-yl)benzyl)oxy)phenyl)-3-(2-hydroxycyclo-hexyl)pyrimidin-4(3H)-one], for which the activation at 1 µM was 100%. For the setting “10 μM modulator”, the activation at 10 µM worked out at 100%.
Regarding `Cn1cc(-c2ccc(COc3cnccc3-c3ccn(C4CCCCC4O)c(=O)c3)cc2)cn1` (centres unmarked) [Compound 7e, 1-(2-Hydroxycyclohexyl)-3’-((4-(1-methyl-1H-pyrazol-4-yl)benzyl)oxy)-[4,4’-bipyridin]-2(1H)-one], the “ΔpEC50 [1 μM]: change in ACh pEC50” value stood at 1.17±0.22 and the activation at 1 µM turned out to be 41.9 ± 4.4%. For the setting “10 μM modulator”, the “ΔpEC50 [10 μM]: change in ACh pEC50” value is on record as 1.47±0.35 and the activation at 10 µM worked out at 79.4 ± 2.9%.
Take “4-(2-(Benzyloxy)phenyl)-1-(2-hydroxycyclohexyl)pyridin-2(1H)-one [Compound 27d]”: the “ΔpEC50 [1 μM]: change in ACh pEC50” value is recorded as 0.75±0.06. In addition, for the setting “10 μM modulator”, the “Δbaseline [10 μM]: change in basal response in presence of M1 PAM compared to control curve” value was 54.6±1.9 % of ACh maximal (Emax) response and the “ΔpEC50 [10 μM]: change in ACh pEC50” value is 1.83±0.11.
With `Cn1cc(-c2ccc(COc3cccc(O)c3-c3ccn(C4CCCCC4O)c(=O)c3)cc2)cn1` (centres unmarked) [Compound 7g, 4-(2-Hydroxy-6-((4-(1-methyl-1H-pyrazol-4-yl)benzyl)oxy)phenyl)-1-(2-hydroxycyclohexyl)pyridin-2(1H)-one], the “ΔpEC50 [1 μM]: change in ACh pEC50” value came to 0.14±0.19 and the activation at 1 µM is 12.8 ± 4.4%. Further, under “10 μM modulator”, the “ΔpEC50 [10 μM]: change in ACh pEC50” value was 0.35±0.34 and the activation at 10 µM stood at 45.8 ± 4.8%.
As to `COc1cccc(OCc2ccc(-c3cnn(C)c3)cc2)c1-c1cc(=O)n([C@H]2CCCC[C@@H]2O)cn1` (racemic) [Compound 26c, 3-(2-Hydroxycyclohexyl)-6-(2-methoxy-6-((4-(1-methyl-1H-pyra-zol-4-yl)benzyl)oxy)phenyl)pyrimidin-4(3H)-one], the “ΔpEC50 [1 μM]: change in ACh pEC50” value is given as 0.02±0.06 and the activation at 1 µM came out at 1.37 ± 1.6%. Further, the activation at 10 µM (10 μM modulator) was 5.99 ± 1.7%.
`Cc1cc(OCc2ccc(-c3cnn(C)c3)cc2)c(-c2ccn(C3CCCCC3O)c(=O)c2)cc1C` (centres unmarked) [Compound 7c, 4-(4,5-Dimethyl-2-((4-(1-methyl-1H-pyrazol-4-yl)benzyl)oxy)phenyl)-1-(2-hydroxycyclohexyl)pyridin-2(1H)-one]: the activation at 1 µM was -1.7%. Also, where the note is “10 μM modulator”, the “ΔpEC50 [10 μM]: change in ACh pEC50” value is reported as 0.41±0.08 and the activation at 10 µM is 2.8 ± 1.9%.
For `Cc1ccc(OCc2ccc(-c3cnn(C)c3)cc2)c(-c2ccn(C3CCCCC3O)c(=O)c2)c1` (centres unmarked) [Compound 7a, 1-(2-Hydroxycyclohexyl)-4-(5-methyl-2-((4-(1-methyl-1H-pyrazol-4-yl)benzyl)oxy)phenyl)pyridin-2(1H)-one], in that order: 0.47 ± 2%, 0.41±0.07 and 4.4 ± 2%.
Turning to `COC1CCCCC1n1ccc(-c2ccccc2OCc2ccc(-c3cnn(C)c3)cc2)cc1=O` (centres unmarked) [Compound 14, 1-(2-Methoxycyclohexyl)-4-(2-((4-(1-methyl-1H-pyrazol-4-yl)benzyl)oxy)phenyl)pyridin-2(1H)-one], the “ΔpEC50 [1 μM]: change in ACh pEC50” value is given as 0.03±0.06 and the activation at 1 µM was determined as 5.8 ± 1.5%. Under “10 μM modulator”, the “ΔpEC50 [10 μM]: change in ACh pEC50” value is given as 0.96±0.07 and the activation at 10 µM came out at 22.1 ± 1.6%.
In the case of `Cc1ccc(-c2ccn(C3CCCCC3O)c(=O)c2)c(OCc2ccc(-c3cnn(C)c3)cc2)c1` (centres unmarked) [Compound 7b, 1-(2-Hydroxycyclohexyl)-4-(4-methyl-2-((4-(1-methyl-1H-pyrazol-4-yl)benzyl)oxy)phenyl)pyridin-2(1H)-one], the activation at 1 µM is 3.5 ± 1.9%. For the same compound, where the note is “10 μM modulator”, the “ΔpEC50 [10 μM]: change in ACh pEC50” value was 0.75±0.08 and the activation at 10 µM is 10.7 ± 2%.
For `Cn1cc(-c2ccc(COc3ccccc3-c3ccn(C4CCCCC4)c(=O)c3)cc2)cn1` [Compound 13b, 1-Cyclohexyl-4-(2-((4-(1-methyl-1H-pyrazol-4-yl)benzyl)oxy)phenyl)pyridin-2(1H)-one], in that order: 5 ± 1.7%, 0.17±0.06 and -1.9%.
As for `Cn1cc(-c2ccc(COc3ccsc3-c3cc(=O)n(C4CCCCC4O)cn3)cc2)cn1` (centres unmarked) [Compound 26b, 3-(2-Hydroxycyclohexyl)-6-(3-((4-(1-methyl-1H-pyrazol-4-yl)benzyl)oxy)thiophen-2-yl)pyrimidin-4(3H)-one], the activation at 1 µM came to 100%. For the setting “10 μM modulator”, the activation at 10 µM was found to be 100%.
Regarding `COC1CCCCC1n1cnc(-c2ccccc2OCc2ccc(-c3cnn(C)c3)cc2)cc1=O` (centres unmarked) [Compound 28a, 3-(2-Methoxycyclohexyl)-6-(2-((4-(1-methyl-1H-pyrazol-4-yl)benzyl)oxy)phenyl)pyrimidin-4(3H)-one], the “ΔpEC50 [1 μM]: change in ACh pEC50” value is 0.40±0.24 and the activation at 1 µM was 53.7 ± 3.8%. Further, under “10 μM modulator”, the “ΔpEC50 [10 μM]: change in ACh pEC50” value amounted to 0.26±0.55 and the activation at 10 µM was 72.9 ± 3.6%.
